This note sets out measurements from patent US20080004253A1, “Thiazolopyrimidine modulators of TRPV1” (priority 2006, published 2008).

One assay has as its target T1, rat TRPV1 (Rattus norvegicus, UniProt O35433).
T1 construct: expressed in transfected cells; host or cells: HEK293 (rTRPV1/HEK293), geneticin selection
Briefly: Functional assay: block of capsaicin-induced Ca2+ influx, rat assay (rTRPV1/HEK293, FLIPR). Particulars: rTRPV1/HEK293 cells, capsaicin challenge, Fluo-3 fluorescence; mean; > value = solubility limit in assay medium. In kind it is cell-based. A digest of the protocol: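 HEK293 cells expressing rat TRPV1, loaded with fluo3 and preincubated 30 min with compound in 20 μM Ca2+ buffer before capsaicin challenge. Block read as fluo3 fluorescence change over 100 s after agonist, 3-fold series from 10 μM in duplicate. IC50 by non-linear regression, mean values.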

A further assay addresses T2, human TRPV1 (Homo sapiens, UniProt Q8NER1).
T2 construct: expressed in transfected cells; host or cells: HEK293 (hTRPV1/HEK293), zeocin selection
Briefly: Functional assay: block of capsaicin-induced Ca2+ influx, human assay (hTRPV1/HEK293, FLIPR). As to conditions: hTRPV1/HEK293 cells, 150 nM capsaicin challenge, Fluo-3 fluorescence; mean; > value = solubility limit in assay medium. It is filed as cell-based. A digest of the protocol:
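HEK293 cells stably expressing human TRPV1, fluo3-loaded, preincubated 30 min with compound (serial 3-fold dilutions from 10 μM, duplicate) in 20 μM Ca2+ buffer. Capsaicin response taken as fluo3 fluorescence change before vs 100 s after agonist; IC50 by non-linear regression, mean values; free base or TFA salt.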

T1 sequence (O35433 whole entry): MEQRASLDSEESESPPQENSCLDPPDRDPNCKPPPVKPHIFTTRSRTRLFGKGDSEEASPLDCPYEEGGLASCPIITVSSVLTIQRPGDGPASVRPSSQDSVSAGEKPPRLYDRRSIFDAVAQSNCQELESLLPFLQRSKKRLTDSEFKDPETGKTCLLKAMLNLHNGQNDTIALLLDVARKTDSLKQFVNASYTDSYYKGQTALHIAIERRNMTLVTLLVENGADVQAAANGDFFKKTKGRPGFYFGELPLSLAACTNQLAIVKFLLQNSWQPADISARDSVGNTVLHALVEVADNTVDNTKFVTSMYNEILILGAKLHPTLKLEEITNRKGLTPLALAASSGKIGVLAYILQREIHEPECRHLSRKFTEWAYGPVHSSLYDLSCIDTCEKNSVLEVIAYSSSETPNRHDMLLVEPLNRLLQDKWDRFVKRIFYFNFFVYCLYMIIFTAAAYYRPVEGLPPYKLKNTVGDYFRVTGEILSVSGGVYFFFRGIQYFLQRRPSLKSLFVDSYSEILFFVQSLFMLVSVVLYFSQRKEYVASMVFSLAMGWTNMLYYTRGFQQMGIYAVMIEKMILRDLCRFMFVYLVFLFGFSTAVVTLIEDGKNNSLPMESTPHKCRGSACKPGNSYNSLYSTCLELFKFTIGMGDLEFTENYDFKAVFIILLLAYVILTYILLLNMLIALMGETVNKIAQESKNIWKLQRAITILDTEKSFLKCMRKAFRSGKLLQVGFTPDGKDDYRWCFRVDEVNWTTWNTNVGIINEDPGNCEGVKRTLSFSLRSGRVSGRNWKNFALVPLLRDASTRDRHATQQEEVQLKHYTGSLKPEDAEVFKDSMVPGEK
T2 sequence (Q8NER1 whole entry): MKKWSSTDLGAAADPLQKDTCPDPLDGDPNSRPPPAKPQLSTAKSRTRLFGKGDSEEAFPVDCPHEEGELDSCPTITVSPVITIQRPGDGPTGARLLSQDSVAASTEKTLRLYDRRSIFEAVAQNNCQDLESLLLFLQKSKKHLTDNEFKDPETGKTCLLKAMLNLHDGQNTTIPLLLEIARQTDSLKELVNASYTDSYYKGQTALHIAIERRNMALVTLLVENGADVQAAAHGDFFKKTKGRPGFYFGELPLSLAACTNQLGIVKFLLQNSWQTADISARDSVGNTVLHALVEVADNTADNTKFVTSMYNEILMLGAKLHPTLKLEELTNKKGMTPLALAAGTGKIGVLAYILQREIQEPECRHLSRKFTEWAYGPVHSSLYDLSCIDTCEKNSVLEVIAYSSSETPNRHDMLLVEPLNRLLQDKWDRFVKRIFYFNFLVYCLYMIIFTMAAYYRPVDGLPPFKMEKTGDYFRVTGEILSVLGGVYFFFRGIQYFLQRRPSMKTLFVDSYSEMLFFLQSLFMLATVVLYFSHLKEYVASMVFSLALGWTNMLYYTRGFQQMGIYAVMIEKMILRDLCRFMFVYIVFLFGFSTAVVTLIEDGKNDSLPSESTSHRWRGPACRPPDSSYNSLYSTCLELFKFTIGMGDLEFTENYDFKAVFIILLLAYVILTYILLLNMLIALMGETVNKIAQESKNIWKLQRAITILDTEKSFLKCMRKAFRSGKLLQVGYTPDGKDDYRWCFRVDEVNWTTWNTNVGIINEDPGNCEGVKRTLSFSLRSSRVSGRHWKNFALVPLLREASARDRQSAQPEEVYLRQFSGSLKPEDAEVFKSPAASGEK

By IC50 is commonly meant the midpoint of a concentration-inhibition curve. Low values mean higher potency, high ones lower potency. With `Cc1nc(Nc2ccc(C(F)(F)F)cc2)c2nc(N(C)c3c(Cl)cccc3Cl)sc2n1` [Example 23, N^2-(2,6-Dichloro-phenyl)-5,N^2-dimethyl-N^7-(4-trifluoromethyl-phenyl)-thiazolo[5,4-d]pyrimidine-2,7-diamine], the half-inhibitory concentration (IC50) at rat TRPV1 is 319 nM; on human TRPV1 it was 1140 nM.

On to `Cc1nc(Nc2cccnc2)c2nc(Nc3c(C)cccc3C)sc2n1` [Example 171, N^2-(2,6-Dimethyl-phenyl)-5-methyl-N^7-pyridin-3-yl-thiazolo[5,4-d]pyrimidine-2,7-diamine], for which the IC50 on rat TRPV1 is 5320 nM; against human TRPV1, more than 20000 nM.

As for `CCCCOc1nc(Nc2ccc(C(F)(F)F)cc2)c2nc(Nc3c(Cl)cccc3Cl)sc2n1` [Example 189, 5-Butoxy-N^2-(2,6-dichloro-phenyl)-N^7-(4-trifluoromethyl-phenyl)-thiazolo[5,4-d]pyrimidine-2,7-diamine], the IC50 against rat TRPV1 is 8 nM; on human TRPV1 it was 19 nM.

As to `FC(F)(F)c1ccc(Nc2ncnc3sc(Nc4c(Cl)cccc4C(F)(F)F)nc23)cc1` [Example 18, N^2-(2-Chloro-6-trifluoromethyl-phenyl)-N^7-(4-trifluoromethyl-phenyl)-thiazolo[5,4-d]pyrimidine-2,7-diamine], the results for the IC50 against rat TRPV1 and on human TRPV1 were 9 nM and 30 nM, respectively.

`Cc1nc(Nc2ccc(N(C)S(C)(=O)=O)cc2)c2nc(Nc3c(C)cccc3C)sc2n1` [Example 164, N-{4-[2-(2,6-Dimethyl-phenylamino)-5-methyl-thiazolo[5,4-d]pyrimidin-7-ylamino]-phenyl}-N-methyl-methanesulfonamide]: the values for the IC50 on rat TRPV1 and at human TRPV1 were 626 nM and 6510 nM, respectively.

With `Cc1nc(Nc2ccc([S+](C)[O-])cc2)c2nc(Nc3c(C)cccc3C)sc2n1` (racemic) [Example 143, (racemic)-N^2-(2,6-Dimethyl-phenyl)-N^7-(4-methanesulfinyl-phenyl)-5-methyl-thiazolo[5,4-d]pyrimidine-2,7-diamine], the figures for the IC50 at rat TRPV1 and against human TRPV1 were 279 nM and 423 nM, respectively.

Turning to `CC1CCCN1c1nc(Nc2ccc(S(C)(=O)=O)cc2)c2nc(Nc3c(Cl)cccc3Cl)sc2n1` (racemic) [Example 117, (racemic)-N^2-(2,6-Dichloro-phenyl)-N^7-(4-methanesulfonyl-phenyl)-5-(2-methyl-pyrrolidin-1-yl)-thiazolo[5,4-d]pyrimidine-2,7-diamine], the half-maximal inhibitory concentration (IC50) at rat TRPV1 was 7 nM; on human TRPV1, 50 nM.

As for `Cc1cccc(Cl)c1Nc1nc2c(Nc3ccc(C(F)(F)F)cc3)ncnc2s1` [Example 14, N^2-(2-Chloro-6-methyl-phenyl)-N^7-(4-trifluoromethyl-phenyl)-thiazolo[5,4-d]pyrimidine-2,7-diamine], the IC50 is 1 nM against rat TRPV1 and 11 nM against human TRPV1.

With `CSc1ccccc1Nc1nc2c(Nc3ccc(C(F)(F)F)cc3)nc(C)nc2s1` [Example 195, 5-Methyl-N^2-(2-methylsulfanyl-phenyl)-N^7-(4-trifluoromethyl-phenyl)-thiazolo[5,4-d]pyrimidine-2,7-diamine], the IC50 against rat TRPV1 was found to be 319 nM; at human TRPV1 it was 419 nM.

On to `Cc1nc(Nc2ccc(C(F)(F)F)c(F)c2)c2nc(Nc3c(C)cccc3C)sc2n1` [Example 121, N^2-(2,6-Dimethyl-phenyl)-N^7-(3-fluoro-4-trifluoromethyl-phenyl)-5-methyl-thiazolo[5,4-d]pyrimidine-2,7-diamine], for which the values for the 50% inhibitory concentration (IC50) against rat TRPV1 and on human TRPV1 were 25 nM and 82 nM, respectively.

With `CC(C)(C(=O)O)c1ccc(Nc2ncnc3sc(Nc4c(Cl)cccc4Cl)nc23)cc1` [Example 230, 2-[4-({2-[(2,6-Dichlorophenyl)amino][1,3]thiazolo[5,4-d]pyrimidin-7-yl}amino)phenyl]-2-methylpropanoic acid], the IC50 is 2 nM against rat TRPV1 and 43 nM at human TRPV1.

Regarding `CC(C)(C#N)c1ccc(Nc2ncnc3sc(Nc4c(Cl)cccc4Cl)nc23)cc1` [Example 228, 2-[4-({2-[(2,6-Dichlorophenyl)amino][1,3]thiazolo[5,4-d]pyrimidin-7-yl}amino)phenyl]-2-methylpropanenitrile], the IC50 at rat TRPV1 amounted to 98 nM; on human TRPV1, 101 nM.

For `Cc1nc(NC2CCC(C(C)(C)C)CC2)c2nc(Nc3c(Cl)cccc3Cl)sc2n1` (mixture of isomers) [Example 8, N^7-(4-tert-Butyl-cyclohexyl)-N^2-(2,6-dichloro-phenyl)-5-methyl-thiazolo[5,4-d]pyrimidine-2,7-diamine], the IC50 against rat TRPV1 worked out at 70 nM; against human TRPV1, 1090 nM.

In the case of `FC(F)(F)c1ccc(Nc2nc(NCCN3CCCCC3)nc3sc(Nc4c(Cl)cccc4Cl)nc23)cc1` [Example 180, N^2-(2,6-Dichloro-phenyl)-N^5-(2-piperidin-1-yl-ethyl)-N^7-(4-trifluoromethyl-phenyl)-thiazolo[5,4-d]pyrimidine-2,5,7-triamine], the figures for the IC50 at rat TRPV1 and at human TRPV1 were 32 nM and 123 nM, respectively.

`Cc1ccccc1Nc1nc2c(Nc3ccc(C(F)(F)F)nc3)ncnc2s1` [Example 218, N^2-(2-Methylphenyl)-N^7-[6-(trifluoromethyl)pyridin-3-yl][1,3]thiazolo[5,4-d]pyrimidine-2,7-diamine]: the figures for the IC50 at rat TRPV1 and on human TRPV1 were 24 nM and 55 nM, respectively.

In the case of `Cc1nc(Nc2ccc(C(C)(C)C)cc2)c2nc(Nc3c(C)cccc3C)sc2n1` [Example 244, N^7-(4-tert-Butyl-phenyl)-N^2-(2,6-dimethyl-phenyl)-5-methyl-thiazolo[5,4-d]pyrimidine-2,7-diamine], the IC50 was found to be 3 nM on rat TRPV1 and 12 nM at human TRPV1.

`Cc1cccc(C)c1Nc1nc2c(Nc3ccc(OC4CCOC4)cc3)ncnc2s1` (racemic) [Example 154, (racemic)-N^2-(2,6-Dimethyl-phenyl)-N^7-[4-(tetrahydro-furan-3-yloxy)-phenyl]-thiazolo[5,4-d]pyrimidine-2,7-diamine]: the IC50 at rat TRPV1 came out at 1860 nM; against human TRPV1, 1520 nM.

Take `Cc1ccc(Nc2ncnc3sc(Nc4c(C)cccc4C)nc23)cc1` [Example 35, N^2-(2,6-Dimethyl-phenyl)-N^7-p-tolyl-thiazolo[5,4-d]pyrimidine-2,7-diamine]: the IC50 against rat TRPV1 worked out at 10 nM; at human TRPV1, 31 nM.

With `COC(=O)c1scc(C)c1Nc1nc2c(Nc3ccc(C(F)(F)F)cc3)ncnc2s1` [Example 48, 4-Methyl-3-[7-(4-trifluoromethyl-phenylamino)-thiazolo[5,4-d]pyrimidin-2-ylamino]-thiophene-2-carboxylic acid methyl ester], the IC50 against rat TRPV1 came to 202 nM; against human TRPV1, 207 nM.

Take `Cc1cccc(C)c1Nc1nc2c(Nc3ccc4c(c3)OCCO4)ncnc2s1` [Example 150, N^7-(2,3-Dihydro-benzo[1,4]dioxin-6-yl)-N^2-(2,6-dimethyl-phenyl)-thiazolo[5,4-d]pyrimidine-2,7-diamine]: the IC50 stood at 204 nM at rat TRPV1 and 937 nM on human TRPV1.
